The test system of experiment [1] is rabbit normal intraocular pressure. Kind of experiment: Intraocular pressure reducing action. The experiment is classed as in vivo, Japanese white rabbit. As to conditions: Oryctolagus cuniculus, topical, read-out: intraocular pressure reducing degree; for inhibition in vivo at 3000 µM: 3 mM aqueous solution, 50 μl to the left eye, max IOP reduction (2, 4, 6 hours) / value immediately before administration. A digest of the protocol:
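Japanese white rabbits (~2 kg) under topical anaesthesia received 50 μl of a 3 mM aqueous test solution in the left eye, right eye untreated. IOP read by tonometer before and at 2, 4, 6 h; maximal left–right difference divided by pre-dose IOP ×100 gives % reduction.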

In a further experiment the test system is TNF-α production. In words: Inhibitory effect on TNF-α production in mice (LPS). The experiment is classed as in vivo, BALB/c mice. As to conditions: Mus musculus, 1.5 h; oral administration of 30 mg/kg, LPS 5 μg i.p. 60 minutes later, plasma after 90 minutes; read-out: TNF-α production suppressing action. As for the experimental part: BALB/c mice (Japan CRJ, famale) were used as experimental animals. Each test compound was dissolved in distilled water at a concentration suitable for the examination. The weight of each mouse was measured, a test compound solution was orally administered in a volume corresponding to 10 ml/kg, and only distilled water was administered to the control group. Each group consisted of five to seven animals. LPS was dissolved in physiological saline, and intraperitoneally administered to each mouse in an amount of 5 μg. The test compound was administered first, and LPS (lipopolysaccharide, Sigma) was administered 60 minutes later. After 90 minutes, blood was collected from the abdominal large vein in the presence of heparin, and plasma was obtained by centrifugation. TNF-α content in the plasma was measured by using the ELISA method.

The next experiment concerns the target T1, human ROCK1 (Homo sapiens, UniProt Q13464).
T1 construct: His tag (N); host or cells: insect cells (Sf9)
Kind of experiment: Measurement of Rho kinase inhibitory activity (ELISA of MBS phosphorylation). The following applies: human ROCK1, MBS substrate, 100 μM ATP, 30° C. for 10 minutes. The experiment is classed as biochemical. A digest of the protocol: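 N-terminal His-tagged human ROCK1 (1-727, Sf9-expressed) phosphorylated plate-immobilized MBS in 20 mM HEPES pH 7.5, 100 μM ATP, 30° C for 10 minutes. Phospho-MBS detected by antibody ELISA (A490); IC50 is concentration giving 50% inhibition.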
(An ELISA detects its analyte on a solid surface through an enzyme-linked reagent.)

The subject of experiment [2] is mouse neuroblastoma cell strain N1E-115. Kind of experiment: Inhibitory effect on neurite retraction (LPA-induced). The experiment is classed as cell-based. As to conditions: mouse/rat NG108-15; 10 μM compound, 1 μM LPA, N1E-115 cells. Here is the method: An experiment for Inhibitory effect on neurite retraction using mouse neuroblastoma cell strain N1E-115 was performed according to the method of Hirose, M. et al. (J. Cell. Biol., 141, pp. 1625-1636 (1998)). This method utilizes the fact that LPA (lysophosphatidic acid), which is a endogenous substance, induces neurite retraction, and is a method of evaluating how much a drug can inhibit the LPA-induced neurite retraction and thereby evaluating potency of inhibition of neuronal degeneration and potency of neuronal regeneration of the drug. N1E-115 cells cultured in a DMEM solution containing 20% heat-inactivated fetal bovine serum were plated on a 6-well plate (IWAKI) at a density of 40,000 cells/well, and cultured overnight at 37° C. in the same culture medium in a 5% CO2 incubator. In order to induce differentiation of the N1E 115 cells into nerve cells, the culture medium was changed to the serum-free DMEM solution, and the cells were cultured for 1 or 2 days at 37° C. in the 5% CO2 incubator until most of the cells extended the neurites. On the examination day, each compound of the present invention was added at a final concentration of 10 μM, incubation was performed for 30 minutes, then LPA (Sigma) was added at a final concentration of 1 μM, and incubation was further performed for 10 minutes. To the control, the same volume of phosphate buffered saline as the solvent was added. After completion of the incubation, glutaraldehyde was added at a final concentration of 5% to fix the cells. […] The inhibition rate (%) of each drug was calculated by using the following equation. Inhibition rate(%)=100−(RCP obtained with drug to be evaluated−RCP of control)/(RCP obtained with LPA−RCP of control)×100

This is an account of results in US7964613B2 (Asahi Kasei Pharma Corporation, priority 2007, dated 2011).

The structures appear in SMILES notation.

T1 sequence (Q13464 1-727): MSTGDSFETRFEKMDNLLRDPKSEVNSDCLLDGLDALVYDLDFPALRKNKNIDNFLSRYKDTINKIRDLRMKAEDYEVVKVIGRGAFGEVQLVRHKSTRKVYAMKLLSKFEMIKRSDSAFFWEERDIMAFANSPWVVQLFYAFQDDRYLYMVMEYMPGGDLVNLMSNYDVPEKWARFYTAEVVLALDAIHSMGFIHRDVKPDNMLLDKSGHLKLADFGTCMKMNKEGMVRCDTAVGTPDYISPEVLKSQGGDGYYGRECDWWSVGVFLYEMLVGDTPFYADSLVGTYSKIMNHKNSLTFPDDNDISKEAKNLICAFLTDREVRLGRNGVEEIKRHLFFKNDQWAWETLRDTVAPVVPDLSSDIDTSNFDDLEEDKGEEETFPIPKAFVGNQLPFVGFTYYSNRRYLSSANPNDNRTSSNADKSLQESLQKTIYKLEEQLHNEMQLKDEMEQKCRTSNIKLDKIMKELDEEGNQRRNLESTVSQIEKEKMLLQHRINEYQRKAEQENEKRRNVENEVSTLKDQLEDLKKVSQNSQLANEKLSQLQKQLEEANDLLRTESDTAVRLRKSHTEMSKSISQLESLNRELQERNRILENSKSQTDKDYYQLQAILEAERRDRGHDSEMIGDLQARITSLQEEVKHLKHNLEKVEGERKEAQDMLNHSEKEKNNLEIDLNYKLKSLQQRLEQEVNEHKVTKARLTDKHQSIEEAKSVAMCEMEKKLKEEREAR

One may read the IC50 as the midpoint of a concentration-inhibition curve. A higher IC50 goes with weaker potency in that assay. For `CN[C@H]1CCN(S(=O)(=O)c2cccc3cncc(Br)c23)C1` [Example 1-3, (S)-1-(4-Bromo-5-isoquinolinesulfonyl)-3-(methylamino)pyrrolidine], in experiment [1], the inhibition in vivo at 3000 µM was ≥ 20%. For the same compound, in experiment [1] (test compound of 1 mM, same test as Test Example 3), the inhibition in vivo at 1000 µM is ≥ 20%. Also, the inhibition in vivo at 30 mg/kg in the experiment on TNF-α production was ≥ 50%. Moreover, the IC50 on human ROCK1 is < 1000 nM.
In the case of `Cc1ccc(CN[C@H]2CCN(S(=O)(=O)c3cccc4cncc(Br)c34)C2)cc1` [Example 1-12], the inhibition in vivo at 30 mg/kg in the experiment with TNF-α production was ≥ 30%. The IC50 against human ROCK1 is < 1000 nM.
The term inhibition denotes the drop in the measured response relative to a control, in per cent. Read a low inhibition as a weak effect. Consider `O=S(=O)(c1cccc2cncc(Br)c12)N1CC[C@H](NCc2ccc[nH]2)C1` [Example 1-18], for which the inhibition in vivo at 3000 µM in experiment [1] lay in the range of 10 to 20%. The inhibition at 10 µM in experiment [2] is ≥ 50%. The inhibition in vivo at 30 mg/kg with TNF-α production is ≥ 50%. Further, at human ROCK1, the IC50 was < 1000 nM.
On to `O=S(=O)(c1cccc2cncc(Br)c12)N1CC[C@H](NC2CCOCC2)C1` [Example 1-30], for which, in experiment [1], the inhibition in vivo at 3000 µM was ≥ 20%. Further, the inhibition in vivo at 30 mg/kg in the experiment with TNF-α production was ≥ 30%. Besides, the IC50 on human ROCK1 is 1000 to 3000 nM.
For `O=S(=O)(c1cccc2cncc(Br)c12)N1CC[C@H](NCc2ccco2)C1` [Example 4-1, (S)-3-(2-Furylmethyl)amino-1-(4-bromo-5-isoquinolinesulfonyl)pyrrolidine], the inhibition in vivo at 3000 µM in experiment [1] was ≥ 20%. Also, the inhibition in vivo at 30 mg/kg in the experiment with TNF-α production is ≥ 30%. For the same compound, the IC50 on human ROCK1 was < 1000 nM.
The matching figures for `Cc1ccc(CN[C@H]2CCN(S(=O)(=O)c3cccc4cncc(C)c34)C2)cc1` [Example 8-12]: ≥ 20%, ≥ 50% and < 1000 nM.
Consider `C#Cc1cncc2cccc(S(=O)(=O)N3CC[C@H](N)C3)c12` [Example 10-1, (S)-3-Amino-1-(4-ethynyl-5-isoquinolinesulfonyl)pyrrolidine], for which the inhibition in vivo at 3000 µM in experiment [1] is ≥ 20%. In addition, the inhibition in vivo at 30 mg/kg with TNF-α production was ≥ 50%. In addition, at human ROCK1, the IC50 is < 1000 nM.
As for `N[C@H]1CCN(S(=O)(=O)c2cccc3cncc(C4CC4)c23)C1` [Example 11-1, (S)-3-Amino-1-(4-cyclopropyl-5-isoquinolinesulfonyl)pyrrolidine], the inhibition in vivo at 3000 µM in experiment [1] lay in the range of 5 to 10%. For the same compound, in the experiment with TNF-α production, the inhibition in vivo at 30 mg/kg is ≥ 30%. Moreover, the IC50 against human ROCK1 was < 1000 nM.
Take `N[C@H]1CCN(S(=O)(=O)c2cccc3cncc(F)c23)C1` [Example 18-1, (S)-3-Amino-1-(4-fluoro-5-isoquinolinesulfonyl)pyrrolidine]: the inhibition in vivo at 3000 µM in experiment [1] is ≥ 20%. Besides, the inhibition at 10 µM in experiment [2] is ≥ 50%. For the same compound, in the experiment on TNF-α production, the inhibition in vivo at 30 mg/kg is ≥ 50%. The compound also returned an IC50 against human ROCK1 of 1000 to 3000 nM.
For the compound `CN[C@H]1CCN(S(=O)(=O)c2cccc3cncc(F)c23)C1` [Example 18-3, (S)-1-(4-Fluoro-5-isoquinolinesulfonyl)-3-(methylamino)pyrrolidine], in experiment [1], the inhibition in vivo at 3000 µM was ≥ 20%. Besides, the inhibition in vivo at 30 mg/kg with TNF-α production was ≥ 50%.
With `O=S(=O)(c1cccc2cncc(Cl)c12)N1CC[C@H](NC2CCOCC2)C1` [Example 19-31], the inhibition at 10 µM in experiment [2] was ≥ 50%. For the same compound, the inhibition in vivo at 30 mg/kg with TNF-α production is ≥ 50%. The compound further had an IC50 at human ROCK1 of 1000 to 3000 nM.
Consider `N[C@H]1CCN(S(=O)(=O)c2cccc3c(O)ncc(F)c23)C1` [Example 29-1, (S)-3-Amino-1-(1-hydroxy-4-fluoro-5-isoquinolinesulfonyl)pyrrolidine], for which, in experiment [1], the inhibition in vivo at 3000 µM lay in the range of 10 to 20%. Besides, in experiment [2], the inhibition at 10 µM is ≥ 50%. In the experiment with TNF-α production, the inhibition in vivo at 30 mg/kg is ≥ 50%. In addition, at human ROCK1, the IC50 is < 1000 nM.
For the compound `CN[C@@H]1CCN(S(=O)(=O)c2cccc3cncc(Cl)c23)C1` [Example 32-2, (R)-1-(4-Chloro-5-isoquinolinesulfonyl)-3-(methylamino)pyrrolidine], the inhibition in vivo at 3000 µM in experiment [1] is 10 to 20%. The inhibition at 10 µM in experiment [2] is ≥ 50%. The IC50 against human ROCK1 is < 1000 nM.
In the case of `CN[C@H]1CCN(S(=O)(=O)c2cccc3c(O)ncc(Br)c23)C1` [Example 35-1, (S)-1-(1-Hydroxy-4-bromo-5-isoquinolinesulfonyl)-3-(methylamino)pyrrolidine], the inhibition in vivo at 3000 µM in experiment [1] lay within 5 to 10%. Besides, in the experiment on TNF-α production, the inhibition in vivo at 30 mg/kg was ≥ 50%. The IC50 against human ROCK1 is < 1000 nM.
As for `CN[C@H]1CCN(S(=O)(=O)c2cccc3c(O)ncc(F)c23)C1` [Example 37-1, (S)-1-(1-Hydroxy-4-fluoro-5-isoquinolinesulfonyl)-3-(methylamino)pyrrolidine], the inhibition in vivo at 30 mg/kg in the experiment with TNF-α production is ≥ 30%.
Regarding `Nc1ncc(Cl)c2c(S(=O)(=O)N3CC[C@H](N)C3)cccc12` [Example 39-1, (S)-3-Amino-1-(1-amino-4-chloro-5-isoquinolinesulfonyl)pyrrolidine], in experiment [1], the inhibition in vivo at 3000 µM was in the range of 10 to 20%. Moreover, the inhibition at 10 µM in experiment [2] is ≥ 50%. For the same compound, the inhibition in vivo at 30 mg/kg in the experiment on TNF-α production is ≥ 50%. Besides, the IC50 on human ROCK1 is < 1000 nM.
Take `CN[C@H]1CCN(S(=O)(=O)c2cccc3c(N)ncc(Cl)c23)C1` [Example 40-1, (S)-1-(1-Amino-4-chloro-5-isoquinolinesulfonyl)-3-(methylamino)pyrrolidine]: in experiment [1], the inhibition in vivo at 3000 µM is 5 to 10%. In addition, the inhibition at 10 µM in experiment [2] is ≥ 50%. In the experiment with TNF-α production, the inhibition in vivo at 30 mg/kg was ≥ 50%. Moreover, the IC50 against human ROCK1 was in the range of 1000 to 3000 nM.
For `CN[C@H]1CCN(S(=O)(=O)c2cccc3c(N)ncc(Br)c23)C1` [Example 42-1, (S)-1-(1-Amino-4-bromo-5-isoquinolinesulfonyl)-3-(methylamino)pyrrolidine], the inhibition in vivo at 3000 µM in experiment [1] lay within 5 to 10%. Also, in experiment [2], the inhibition at 10 µM was ≥ 50%. Further, the IC50 at human ROCK1 is < 1000 nM.
For the compound `COCC(=O)N[C@H]1CCN(S(=O)(=O)c2cccc3cncc(Cl)c23)C1` [Example 56-1, (S)-3-(2-Methoxyacetyl)amino-1-(4-chloro-5-isoquinolinesulfonyl)pyrrolidine], in experiment [1], the inhibition in vivo at 3000 µM was ≥ 20%. The inhibition in vivo at 30 mg/kg in the experiment with TNF-α production was ≥ 30%. This compound returned an IC50 against human ROCK1 of 1000 to 3000 nM.
As to `COCC(=O)N[C@H]1CCN(S(=O)(=O)c2cccc3cncc(Br)c23)C1` [Example 71, (S)-3-(2-Methoxyacetyl)amino-1-(4-bromo-5-isoquinolinesulfonyl)pyrrolidine], the inhibition in vivo at 3000 µM in experiment [1] was ≥ 20%. Also, the inhibition in vivo at 30 mg/kg with TNF-α production was ≥ 30%.
